From patent US20240247030A1, “TARGETED DELIVERY OF TERTIARY AMINE-CONTAINING DRUG SUBSTANCES” (Seagen Inc., priority 2014, published 2024)
In brackets after ≈: the same amount, converted by molar mass.

What was measured:
[1] = test system: co-culture of L540cy:U268Luc+ cells; experiment: In vitro cytotoxicity, bystander co-culture; format: cell-based; details: cAC10 conjugate obtained from compound 30; CD30+ and CD30- cells co-cultured
Procedure: (§1) In vitro assays. Cells cultured in log-phase growth were seeded for 24 h in 96-well plates containing 150 μL RPMI 1640 supplemented with 20% FBS. Serial dilutions of antibody-drug conjugates in cell culture media were prepared at 4× working concentrations; 50 μL of each dilution was added to the 96-well plates. Following addition of ADC, cells were incubated with test articles for 4 d at 37° C. After 96 h, growth inhibition was assessed by CellTiter-Glo™ (Promega, Madison, W1) and luminescence was measured on a plate reader. The IC50 value, determined in triplicate, is defined here as the concentration that results in a 50% reduction in cell growth relative to untreated controls.
The results of Table 2 and Table 3 indicate that potent and immunologically specific Ligand Drug Conjugates are obtained when a tubulysin is incorporated into such constructs as a quaternized drug unit and that such conjugates are active against multi-resistant cell lines. […] L540cy are CD30+ and U266 are CD30^−

L428 MDR+ HL cells = experiment: In vitro cytotoxicity (CellTiter-Glo, 96 h); format: cell-based; details: 96 hours; for IC50, L428, MDR+ HL: Table 14, cOKT-9 conjugate
HCT-116 CRC cells = format: cell-based; details: Table 14; cOKT-9 conjugate, 96 hours
Procedure: as §1

KM-H2 HL cells = format: cell-based; details: Table 14; cOKT-9 conjugate, 96 hours
[2] = test system: L540cy Hodgkin lymphoma cells; experiment: In vitro cytotoxicity (CellTiter-Glo, 96 h); format: cell-based; details: Table 14; cOKT-9 (anti-transferrin receptor) conjugate, DAR 8 (30) or 6.7 (192), 96 hours
HL60 AML cells = experiment: cells; format: cell-based; details: 96 hours; for IC50, HL60, AML: Table 14, cOKT-9 conjugate
Procedure: as §1

HEL9217 AML cells = experiment: In vitro cytotoxicity (CellTiter-Glo, 96 h); format: cell-based; details: Homo sapiens, HEL 92.1.7, 96 h, read-out: IC50, HEL9217, MDR+ AML
786-O RCC cells = experiment: In vitro cytotoxicity (CellTiter-Glo, 96 h); format: cell-based; details: Homo sapiens, 786-0, 96 h, read-out: IC50, 786-O, MDR+ RCC
panel of cell lines = experiment: In vitro cytotoxicity, statements across a panel of cell lines; format: cell-based; details: cOKT-9 conjugates, cell lines of Table 14
Procedure: as §1

[3] = J. Med. Chem., 2009, 52, 238-240; cited from earlier work

Compound	IC50 against a co-culture of L540cy:U268Luc+ cells [1] [ng/mL]	IC50, L428, MDR+ HL (L428 MDR+ HL cells) [ng/mL]	IC50, HCT-116, CRC (HCT-116 CRC cells) [ng/mL]	IC50, KM-H2 MDR+ HL (KM-H2 HL cells) [ng/mL]	IC50, L540cy, HL [2] [ng/mL]	IC50, HL60, AML (HL60 AML cells) [ng/mL]	IC50 (L428 MDR+ HL cells; Homo sapiens, L-428, 96 h, read-out: IC50, L428, MDR+ HL, Table 13, free drug) [nM]	IC50 (HEL9217 AML cells) [nM]	IC50 (786-O RCC cells) [nM]	IC50 (HL60 AML cells; Homo sapiens, HL-60, 96 h, read-out: IC50, HL60, AML, Table 13, free drug) [nM]	less potent than the quaternary amine-linked TubM (30) conjugate (panel of cell lines)	loss of potency on deacetylation of tubulysin U [3] [fold]
CC[C@H](C)[C@H](NC(=O)[C@H]1CCCC[N+]1(C)Cc1ccc(NC(=O)[C@H](C)NC(=O)[C@@H](NC(=O)CCCCCN2C(=O)C=CC2=O)C(C)C)cc1)C(=O)N(C)[C@H](C[C@@H](OC(C)=O)c1nc(C(=O)N[C@@H](Cc2ccccc2)C[C@H](C)C(=O)O)cs1)C(C)C (stereo partly drawn) [Compound 30, (2R)-2-(((2S,3S)-1-(((1R,3R)-1-acetoxy-1-(4-(((2R,4S)-4-carboxy-1-phenylpentan-2-yl)carbamoyl)thiazol-2-yl)-4-methylpentan-3-yl)(methyl)amino)-3-methyl-1-oxopentan-2-yl)carbamoyl)-1-(4-((S)-2-((S)-2-(6-(2,5-dioxo-2,5-dihydro-1H-pyrrol-1-yl)hexanamido)-3-methylbutanamido)propanamido)benzyl)-1-methylpiperidin-1-ium]	6	0.4	1	<0.26	1	6						
CC[C@H](C)[C@H](NC(=O)[C@H]1CCCCN1C)C(=O)N(C)[C@H](C[C@@H](OC(C)=O)c1nc(C(=O)N[C@@H](Cc2ccccc2)C[C@H](C)C(=O)NN)cs1)C(C)C [Compound 190, (1R,3R)-3-((2S,3S)—N,3-dimethyl-2-((R)-1-methylpiperidine-2-carboxamido)pentanamido)-1-(4-(((2R,4S)-5-hydrazinyl-4-methyl-5-oxo-1-phenylpentan-2-yl)carbamoyl)thiazol-2-yl)-4-methylpentyl acetate]							1	4	4	0.8		
CC[C@H](C)[C@H](NC(=O)[C@H]1CCCCN1C)C(=O)N(C)[C@H](C[C@@H](OC(C)=O)c1nc(C(=O)N[C@@H](Cc2ccccc2)C[C@H](C)C(=O)NNC(=O)OCc2ccc(NC(=O)[C@H](CCCNC(N)=O)NC(=O)[C@@H](NC(=O)CCCCCN3C(=O)C=CC3=O)C(C)C)cc2)cs1)C(C)C [Compound 192, 4-((S)-2-((S)-2-(6-(2,5-dioxo-2,5-dihydro-1H-pyrrol-1-yl)hexanamido)-3-methylbutanamido)-5-ureidopentanamido)benzyl 2-((2S,4R)-4-(2-((1R,3R)-1-acetoxy-3-((2S,3S)—N,3-dimethyl-2-((R)-1-methylpiperidine-2-carboxamido)pentanamido)-4-methylpentyl)thiazole-4-carboxamido)-2-methyl-5-phenylpentanoyl)hydrazinecarboxylate]		284 (≈ 0.212 µM)	302 (≈ 0.225 µM)	56 (≈ 0.0418 µM)	117 (≈ 0.0873 µM)	85 (≈ 0.0634 µM)					1-3 logs	
CC[C@H](C)[C@H](NC(=O)[C@H]1CCCCN1C)C(=O)N[C@H](C[C@@H](O)c1nc(C(=O)N[C@@H](Cc2ccccc2)C[C@H](C)C(=O)O)cs1)C(C)C [tubulysin V, Tubulysin V]												> 100
